Assay results published in patent publication US20190201419A1, “COMPOUND AND METHOD FOR THE TREATMENT AND DIAGNOSIS OF NEURODEGENERATIVE CONDITIONS” (Swansea University, priority 2013, published 2019).

Columns and labels:
Lxrα = biological target: T1, Lxrα (Homo sapiens, UniProt Q13133); experiment: Lxrα luciferase reporter assay in SN4741 neural cells; type: cell-based, mouse; conditions: for Lxrα activation, luciferase activity (fold activation): 10 μM, 24 h
T1 construct: expressed in transfected cells; host or cells: SN4741 mouse neuronal cell line
T1 sequence (Q13133 1-447): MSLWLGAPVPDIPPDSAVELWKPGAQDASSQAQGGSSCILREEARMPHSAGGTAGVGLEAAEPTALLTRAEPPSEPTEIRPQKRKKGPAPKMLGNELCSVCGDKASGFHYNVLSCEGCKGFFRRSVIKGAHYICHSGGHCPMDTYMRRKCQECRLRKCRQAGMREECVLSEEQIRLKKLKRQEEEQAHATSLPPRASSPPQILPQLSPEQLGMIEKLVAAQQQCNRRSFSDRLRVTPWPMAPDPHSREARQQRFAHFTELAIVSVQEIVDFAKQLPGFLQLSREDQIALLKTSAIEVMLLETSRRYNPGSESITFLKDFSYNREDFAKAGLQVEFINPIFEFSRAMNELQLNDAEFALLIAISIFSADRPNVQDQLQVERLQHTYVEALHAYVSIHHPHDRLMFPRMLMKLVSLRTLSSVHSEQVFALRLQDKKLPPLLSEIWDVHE
Text: (§1) Luciferase Reporter Assay.

Lxrβ = biological target: T2, Lxrβ (Homo sapiens, UniProt P55055); experiment: Lxrβ luciferase reporter assay in SN4741 neural cells; type: cell-based, mouse; conditions: SN4741 cells, 10 μM, 24 h
T2 construct: expressed in transfected cells; host or cells: SN4741 mouse neuronal cell line
T2 sequence (P55055 1-460): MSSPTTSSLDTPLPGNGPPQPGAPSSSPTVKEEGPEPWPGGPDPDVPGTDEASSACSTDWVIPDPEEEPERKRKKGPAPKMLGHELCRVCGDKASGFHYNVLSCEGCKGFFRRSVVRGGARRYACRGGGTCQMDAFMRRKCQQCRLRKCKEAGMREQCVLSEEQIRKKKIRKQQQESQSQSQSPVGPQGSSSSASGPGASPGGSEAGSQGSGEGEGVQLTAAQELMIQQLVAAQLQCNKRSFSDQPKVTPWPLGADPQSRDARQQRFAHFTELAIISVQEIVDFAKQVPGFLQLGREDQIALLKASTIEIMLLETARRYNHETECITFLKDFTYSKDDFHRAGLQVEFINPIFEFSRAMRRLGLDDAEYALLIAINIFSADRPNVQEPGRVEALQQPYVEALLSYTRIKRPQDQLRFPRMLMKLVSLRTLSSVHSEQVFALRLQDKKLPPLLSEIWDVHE
Text: as §1

Islet-1 = Islet-1 expression in Tg[Isl1:GFP] zebrafish embryos; type: in vivo; conditions: 10 μM, embryos 48 hpf
Experimental: Quantitative PCR, Total RNA was extracted from SN4741. cells and zebrafish treated with the compounds of interest using the RNeasy Mini Kit (Qiagen), 1 μg was treated with RQ1 RNase-free DNase (Promega) and reverse transcribed using SuperScript II Reverse Transcriptase (invitrogen) and random primers (invitrogen) (RT+reaction). Parallel reactions without reverse transcriptase enzyme were done as a control (RT−reaction), and Sybergreen real-time quantitative PCR assays were performed. Expression levels were obtained by normalization with the Value of the housekeeping gene encoding actin obtained for every sample in parallel assays.
(§2) Zebrafish Strain and Maintenance Zebrafish were raised on a 14/10 h day/night cycle and were kept at 28.5 ° C. Islet-1:GFP transgenic embryos were obtained via natural spawning and staged in hours or days post fertilization (hpf and dpt) according to Kimmel et al). Embryos older than 24 hpf were treated with 0.03% phenylthiourea (PTU) to inhibit pigmentation. MO injections were performed using splice site specific zebrafish lxi MO MO injected embryos were immediately dechorionated and transferred to a 96 well plate and exposed to dimethyl sulfoxide (DMSO) treated or ligand treated medium. Compound Exposure. Islet-1:GFP embryos were collected by natural mating and immediately (at 1 cell stage) dechorionated and transferred to a 96 well plate. Each of the compounds tested were obtained as 10 mM stock and diluted in embryo medium to a final concentration of 10 μM, and 200 μL was added to each well. DMSO or propan-2-ol treated embryo medium was taken as control. Ligand solutions were replaced every 12 h with fresh ligand solution prepared in PTU treated embryo medium. Embryos were collected at 48 hpf, fixed for 4 h at room temperature with 4% paraformaldehyde and then washed and kept in PBST. Immunocytochemistry was performed using an anti-GFP antibody and fluorescence was viewed and photographed using a Zeiss Axioplan compound microscope and a Zeiss Axiocam digital camera.

[1] = system: Islet1+ oculomotor neurons; experiment: Islet1+ cells in mouse E11.5 brain primary cultures; type: cell-based; conditions: wild type cultures
Experimental: Primary Brain Cultures. Brains from E11.5 mice were manually dissected, plated on poly-D-lysine (150,000 cells/cm^2) and grown in serum-free N2 media consisting of 1:1 mixture of F12 and DMEM with 10 ng/mL insulin, 100 μg/mL apo-transferrin, 100 μM putrescine, 20 nM progesterone, 30 nM selenium, 6 mg/mL glucose, and 1 mg/mL BSA. Cells were treated for 3 days in vitro (DIV) with the compounds of interest, fixed with 4% PFA and processed for staining using appropriate antibodies.
Antibodies and Detection Procedures. Cells were fixed in 4% PFA, washed in PBS and blocked in 5% normal goat serum/PBS for 1 h at room temperature. Primary antibodies were diluted in PBS (pH 7.4), 0.3% Triton X-100, 1% BSA and incubations were carried out overnight at +4° C. or at room temperature for 2 h. The antibodies used were anti-:BrdU (1:400; Abeam), Islet-1 (1:100: Developmental Studies Hybridoma Bank), cleaved caspase-3 (Aspt 75) (1:100; Cell Signaling Technology), tyrosine hydroxylase (TH; 1:1000; Pel-Freeze) GABA (1:1,000; Sigma), Bm3a (1:250; Millipore), Nkx6.1 (1:200; Novus Biologicals), choline acetyltransferase (ChAT; 1:500; Millipore) and appropriate secondary antibodies (Jackson ImmunoResearch or Alexa). Cells positive for the corresponding marker were counted directly at the microscope at a magnification of 20×. Cells were counted in every well, in eight consecutive fields (going from one side of the well to the other, passing through the center), in three different wells per experiment and in three different experiments per condition. Random pictures of the wells were taken for every condition to document the result, and representative pictures were subsequently selected to represent the quantitative data. Photos were acquired with a Zeiss Axioplan microscope and a Hamamatsu camera C4742-95 using the Openlab software.

zebrafish embryos = experiment: Survival of transgenic zebrafish embryos on compound exposure; type: in vivo
Experimental: as §2

Row | SMILES | Lxrα activation, luciferase activity (fold activation) (Lxrα) | Lxrβ activation, luciferase activity (fold activation) (Lxrβ) | also measured
1 | CC(C)CCC[C@@H](C)[C@H]1CC[C@H]2[C@@H]3CC[C@H]4CC(=O)CC[C@]4(C)[C@H]3CC[C@]12C [5α-cholestan-3-one] | None of these compounds showed significant activity |  | 
2 | CC(C)CCC[C@@H](C)[C@H]1CC[C@H]2[C@@H]3CC[C@H]4C[C@@H](O)CC[C@]4(C)[C@H]3CC[C@]12C [5α-cholestan-3β-ol] | None of these compounds showed significant activity |  | 
3 | CC(C)CCC[C@@H](C)[C@H]1CC[C@H]2[C@@H]3[C@H](O)CC4=CC(=O)CC[C@]4(C)[C@H]3C[C@H](O)[C@]12C [7α,12α-diHCO, 7α,12α-Dihydroxycholest-4-en-3-one] | None of these compounds showed significant activity |  | 
4 | CC(CO)CCC[C@@H](C)[C@H]1CC[C@H]2[C@@H]3[C@H](O)C=C4C[C@@H](O)CC[C@]4(C)[C@H]3CC[C@]12C (stereo partly drawn) [7α,26-diHC, 7α,26-dihydroxycholesterol] | none of which was found to show significant activity | none of which was found to show significant activity | 
5 | CC(CO)CCC[C@@H](C)[C@H]1CC[C@H]2[C@@H]3[C@H](O)CC4=CC(=O)CC[C@]4(C)[C@H]3CC[C@]12C (stereo partly drawn) [7α,26-diHCO, 7α,26-dihydroxycholest-4-en-3-one] | none of which was found to show significant activity | none of which was found to show significant activity | 
6 | CC(C)CCC[C@@H](C)[C@H]1CC[C@H]2[C@@H]3[C@H](O)CC4=CC(=O)CC[C@]4(C)[C@H]3CC[C@]12C [7α-HCO, 7α-Hydroxycholest-4-en-3-one] | None of these compounds showed significant activity |  | 
7 | CC(CCC[C@@H](C)[C@H]1CC[C@H]2[C@@H]3[C@H](O)CC4=CC(=O)CC[C@]4(C)[C@H]3CC[C@]12C)C(=O)O (stereo partly drawn) [7αH,3O-CA, 7α-hydroxy-3-oxocholest-4-en-26-oic acid] | none of which was found to show significant activity | none of which was found to show significant activity | Islet-GFP expression (Islet-1): failed to regulate Islet-GFP expression
8 | CC(CCC[C@@H](C)[C@H]1CC[C@H]2[C@@H]3[C@@H](O)CC4=CC(=O)CC[C@]4(C)[C@H]3CC[C@]12C)C(=O)O (stereo partly drawn) [7βH,3O-CA, 7β-hydroxy-3-oxocholest-4-en-26-oic acid] | none of which was found to show significant activity | none of which was found to show significant activity | 
9 | CC(C)CC[C@@H](O)[C@@H](C)[C@H]1CC[C@H]2[C@@H]3CC=C4C[C@@H](O)CC[C@]4(C)[C@H]3CC[C@]12C [22R-HC, 22R-hydroxycholesterol, reference compound] |  |  | Number of Islet1+ cells [1]: does not show an effect towards Islet1+ cells; Lxr luciferase activity with addition of the Lxr antagonist GGPP (Lxrα; 10 μM metabolite + 10 μM GGPP): similarly blocked
10 | CC(C)[C@@H](O)CC[C@@H](C)[C@H]1CC[C@H]2[C@@H]3CC=C4C[C@@H](O)CC[C@]4(C)[C@H]3CC[C@]12C [24S-HC, cholest-5-ene-3β,24S-diol] | activate Lxr | activate Lxr | 
11 | C[C@@H](CO)CCC[C@@H](C)[C@H]1CC[C@H]2[C@@H]3CC=C4C[C@@H](O)CC[C@]4(C)[C@H]3CC[C@]12C [26-HC, cholest-(25R)-5-en-3β,26-diol] | had no a significant effect | had no a significant effect | Number of Islet1+ cells [1]: no effect on the number of Islet1+ cells
12 | C[C@H](CCC(=O)O)[C@H]1CC[C@H]2[C@@H]3[C@H](O)C[C@@H]4C[C@H](O)CC[C@]4(C)[C@H]3CC[C@]12C [CDCA, chenodeoxycholic acid, reference compound] |  |  | Toxic effect on survival of the fish (zebrafish embryos): had a deleterious toxic effect which impaired the survival of the fish
13 | CC(C)CCC[C@@H](C)[C@H]1CC[C@H]2[C@@H]3CCC4=CC(=O)CC[C@]4(C)[C@H]3CC[C@]12C [cholest-4-en-3-one] | None of these compounds showed significant activity |  | 
14 | CC(C)CCC[C@@H](C)[C@H]1CC[C@H]2[C@@H]3C=CC4=CC(=O)CC[C@]4(C)[C@H]3CC[C@]12C [cholesta-4,6-dien-3-one] | None of these compounds showed significant activity |  | 
